{
  "source": "patent US20230181491A1",
  "about": "“COMPOSITIONS AND METHODS FOR THE TREATMENT AND MANAGEMENT OF INFLAMMATION USING HYDROXYNORKETAMINE” (SPIRIFY PHARMA INC., priority 2020, published 2023)",
  "key": {"human primary monocytes": {"tested_on": "human primary monocytes", "assay": "Viability of human primary monocytes (Alamar Blue)", "conditions": "50 μM and 250 μM; for viability of human primary monocytes: then 24 h LPS", "description": "Viability of human primary monocytes—viable human primary monocyte cells were counted using Alamar Blue. Treatment with toxic amounts of sodium fluoride (NaF at 250 μg/ml) was used as control.\nTo this end, human primary monocytes were incubated for 24 hours and 48 hours with (R,S)-ketamine, (2R,6R)-hydroxynorketamine, (R,S)-norketamine, and (R,S)-dehydronorketamine at concentrations of 50 μM and 250 μM. LPS alone and treatment with dexamethasone (1 μM) were used as controls. Monocyte cells' viability was measured using Alamar blue to evaluate toxicity of the agents."}, "[1]": {"tested_on": "LPS-induced human primary monocytes", "assay": "Release of cytokines (IL-6, TNF-α, IL-8, IL-1β) and PGE2 from LPS-induced human primary monocytes (ELISA, normalized to LPS = 100%)", "assay_type": "cell-based", "conditions": "for effect on secretion of all proinflammatory cytokines tested (IL-6, IL-1β, TNF-α, IL-8): 0.1 μM-250 μM; for inhibition at 50 µM / inhibition at 250 µM: Homo sapiens, Monocyte"}, "rats": {"tested_on": "rats", "conditions": "cited from earlier work"}, "rodents": {"tested_on": "rodents", "conditions": "cited from earlier work"}, "COVID-19 patients": {"tested_on": "COVID-19 patients", "conditions": "cited from earlier work"}, "[2]": {"tested_on": "radical prostatectomy patients", "conditions": "cited from earlier work"}, "[3]": {"conditions": "50 μM and 250 μM, 24 h pre-treatment, then 24 h LPS"}, "[4]": {"conditions": "50 μM and 250 μM, 48 h pre-treatment, then 24 h LPS"}, "[5]": {"conditions": "30 min pre-treatment, then 24 h LPS"}, "[6]": {"conditions": "50 μM, 48 h pre-treatment, then 24 h LPS"}, "[7]": {"conditions": "250 μM, 30 min pre-treatment, then 24 h LPS, read-out: inhibition of LPS-induced IL-1β release"}, "[8]": {"conditions": "250 μM, 30 min pre-treatment, then 24 h LPS, read-out: inhibition of LPS-induced IL-6 release"}, "[9]": {"conditions": "250 μM, 30 min pre-treatment, then 24 h LPS, read-out: inhibition of LPS-induced IL-8 release"}, "[10]": {"conditions": "250 μM, 30 min pre-treatment, then 24 h LPS, read-out: inhibition of LPS-induced TNF-α release"}, "[11]": {"conditions": "250 μM, 24 h pre-treatment, then 24 h LPS, read-out: inhibition of LPS-induced IL-6 release"}, "[12]": {"conditions": "250 μM, 24 h pre-treatment, then 24 h LPS, read-out: inhibition of LPS-induced TNF-α release"}, "[13]": {"conditions": "250 μM, 48 h pre-treatment, then 24 h LPS, read-out: inhibition of LPS-induced TNF-α release"}, "[14]": {"conditions": "250 μM, 30 min pre-treatment, then 24 h LPS"}, "[15]": {"conditions": "250 μM, 24 h pre-treatment, then 24 h LPS"}},
  "note": "Structures can show the parent of a compound that is named as a salt. Where two headings read alike, the source gives them in different places.",
  "data": [
    {"molecule": "NC1(c2ccccc2Cl)CCC=CC1=O", "note": "(racemic) [(R,S)-dehydronorketamine]", "values": [
      {"measurement": "viability of human primary monocytes", "setting": "human primary monocytes; 24 h pre-treatment", "value": "highly toxic to the cells"},
      {"measurement": "viability of human primary monocytes", "setting": "human primary monocytes; 48 h pre-treatment", "value": "induced a massive cells' mortality"},
      {"measurement": "effect on IL-6 secretion", "setting": "[1]; [3]", "value": "dramatically reduced all cytokines release"},
      {"measurement": "effect on LPS-induced IL-8 release", "setting": "[1]; [3]", "value": "dramatically reduced all cytokines release"},
      {"measurement": "effect on PGE2 secretion", "setting": "[1]; [3]", "value": "dramatically reduced"},
      {"measurement": "effect on TNF-α secretion", "setting": "[1]; [3]", "value": "dramatically reduced all cytokines release"},
      {"measurement": "effect on IL-6 secretion", "setting": "[1]; [4]", "value": "dramatically reduced all cytokines release"},
      {"measurement": "effect on LPS-mediated IL-8 release", "setting": "[1]; [4]", "value": "dramatically reduced all cytokines release"},
      {"measurement": "effect on PGE2 secretion", "setting": "[1]; [4]", "value": "dramatically reduced"},
      {"measurement": "effect on TNF-α secretion", "setting": "[1]; [4]", "value": "dramatically reduced all cytokines release"}
    ]},
    {"molecule": "CNC1(c2ccccc2Cl)CCCCC1=O", "note": "(racemic) [(R,S)-ketamine hydrochloride]", "values": [
      {"measurement": "effect on secretion of all proinflammatory cytokines tested (IL-6, IL-1β, TNF-α, IL-8)", "setting": "[1]; [5]", "value": "potent inhibitory effect"},
      {"measurement": "effect on IL-6 secretion", "setting": "[1]; [3]", "value": "inhibition in the secretion"},
      {"measurement": "effect on LPS-induced IL-8 release", "setting": "[1]; [3]", "value": "without affecting IL-8"},
      {"measurement": "effect on PGE2 secretion", "setting": "[1]; [3]", "value": "inhibition in the secretion"},
      {"measurement": "effect on TNF-α secretion", "setting": "[1]; [3]", "value": "inhibition in the secretion"},
      {"measurement": "effect on IL-6 secretion", "setting": "[1]; [4]", "value": "inhibition of TNF-α, IL-6, and PGE2 secretion"},
      {"measurement": "effect on PGE2 secretion", "setting": "[1]; [4]", "value": "inhibition of TNF-α, IL-6, and PGE2 secretion"},
      {"measurement": "effect on TNF-α secretion", "setting": "[1]; [4]", "value": "inhibition of TNF-α, IL-6, and PGE2 secretion"},
      {"measurement": "inhibition at 50 µM", "setting": "[1]; [6]", "value": "~40", "unit": "%"},
      {"measurement": "inhibition at 250 µM", "setting": "[1]; [7]", "value": "30 to 60", "unit": "%"},
      {"measurement": "inhibition at 250 µM", "setting": "[1]; [8]", "value": "30 to 60", "unit": "%"},
      {"measurement": "inhibition at 250 µM", "setting": "[1]; [9]", "value": "30 to 60", "unit": "%"},
      {"measurement": "inhibition at 250 µM", "setting": "[1]; [10]", "value": "30 to 60", "unit": "%"},
      {"measurement": "inhibition at 250 µM", "setting": "[1]; [11]", "value": "~30", "unit": "%"},
      {"measurement": "inhibition at 250 µM", "setting": "[1]; [12]", "value": "~70", "unit": "%"},
      {"measurement": "inhibition at 250 µM", "setting": "[1]; [13]", "value": "~75", "unit": "%"},
      {"measurement": "anesthetic effects", "setting": "rats", "value": "produced anesthetic actions"}
    ]},
    {"molecule": "NC1(c2ccccc2Cl)CCCCC1=O", "note": "(racemic) [(R,S)-norketamine]", "values": [
      {"measurement": "effect on IL-6 secretion", "setting": "[1]; [3]", "value": "remained without any significant change"},
      {"measurement": "effect on LPS-induced IL-8 release", "setting": "[1]; [3]", "value": "remained without any significant change"},
      {"measurement": "effect on PGE2 secretion", "setting": "[1]; [3]", "value": "promoted the secretion of PGE2"},
      {"measurement": "effect on TNF-α secretion", "setting": "[1]; [3]", "value": "inhibited the secretion of TNF-α only at the higher dose tested"},
      {"measurement": "effect on IL-6 secretion", "setting": "[1]; [4]", "value": "inhibited the secretion of TNF-α and IL-6"},
      {"measurement": "effect on PGE2 secretion", "setting": "[1]; [4]", "value": "promoted the secretion of the proinflammatory agent PGE2 at 250 μM"},
      {"measurement": "effect on TNF-α secretion", "setting": "[1]; [4]", "value": "inhibited the secretion of TNF-α and IL-6"},
      {"measurement": "anesthetic effects", "setting": "rats", "value": "produced anesthetic actions"}
    ]},
    {"molecule": "N[C@@]1(c2ccccc2Cl)CCC[C@@H](O)C1=O", "note": "[(2R,6R)-2-amino-2-(2-chlorophenyl)-6-hydroxycyclohexanone]", "values": [
      {"measurement": "antidepressant-relevant behavioral responses", "setting": "rodents", "value": "exert antidepressant-relevant behavioral responses"},
      {"measurement": "safety to monocytes (viability), overall conclusion", "setting": "human primary monocytes; 24 h and 48 h pre-treatment", "value": "monocytes safety"},
      {"measurement": "effect on secretion of all proinflammatory cytokines tested (IL-6, IL-1β, TNF-α, IL-8)", "setting": "[1]; [5]", "value": "cytokines release decrease in a dose dependent manner"},
      {"measurement": "effect on IL-6 secretion", "setting": "[1]; [3]", "value": "inhibition in the secretion"},
      {"measurement": "effect on LPS-induced IL-8 release", "setting": "[1]; [3]", "value": "not affected"},
      {"measurement": "effect on PGE2 secretion", "setting": "[1]; [3]", "value": "inhibition in the secretion"},
      {"measurement": "effect on TNF-α secretion", "setting": "[1]; [3]", "value": "inhibition in the secretion"},
      {"measurement": "effect on IL-6 secretion", "setting": "[1]; [4]", "value": "inhibition of TNF-α, IL-6, and PGE2 secretion"},
      {"measurement": "effect on PGE2 secretion", "setting": "[1]; [4]", "value": "inhibition of TNF-α, IL-6, and PGE2 secretion"},
      {"measurement": "effect on TNF-α secretion", "setting": "[1]; [4]", "value": "inhibition of TNF-α, IL-6, and PGE2 secretion"},
      {"measurement": "inhibition at 50 µM", "setting": "[1]; [6]", "value": "~20", "unit": "%"},
      {"measurement": "inhibition at 250 µM", "setting": "[1]; [7]", "value": "~20", "unit": "%"},
      {"measurement": "inhibition at 250 µM", "setting": "[1]; [8]", "value": "~20", "unit": "%"},
      {"measurement": "inhibition at 250 µM", "setting": "[1]; [9]", "value": "~20", "unit": "%"},
      {"measurement": "inhibition at 250 µM", "setting": "[1]; [10]", "value": "~30", "unit": "%"},
      {"measurement": "inhibition at 250 µM", "setting": "[1]; [11]", "value": "~35", "unit": "%"},
      {"measurement": "inhibition at 250 µM", "setting": "[1]; [12]", "value": "~40", "unit": "%"},
      {"measurement": "inhibition at 250 µM", "setting": "[1]; [13]", "value": "~55", "unit": "%"}
    ]},
    {"molecule": "N[C@]1(c2ccccc2Cl)CCC[C@H](O)C1=O", "note": "[(2S,6S)-hydroxynorketamine hydrochloride, (2S,65)-2-amino-2-(2-chlorophenyl)-6-hydroxycyclohexanone]", "values": [
      {"measurement": "antidepressant-relevant behavioral responses", "setting": "rodents", "value": "exert antidepressant-relevant behavioral responses"},
      {"measurement": "effect on secretion of all proinflammatory cytokines tested (IL-6, IL-1β, TNF-α, IL-8)", "setting": "[1]; [5]", "value": "cytokines release decrease in a dose dependent manner"},
      {"measurement": "effect on LPS-induced IL-8 release", "setting": "[1]; [3]", "value": "not affected"},
      {"measurement": "inhibition of LPS-induced TNF-α release", "setting": "[1]; [6]", "value": "approx. 30%"},
      {"measurement": "inhibition of LPS-induced IL-1β release", "setting": "[1]; [14]", "value": "~20", "unit": "%"},
      {"measurement": "inhibition of LPS-induced IL-6 release", "setting": "[1]; [14]", "value": "~20", "unit": "%"},
      {"measurement": "inhibition of LPS-induced IL-8 release", "setting": "[1]; [14]", "value": "~20", "unit": "%"},
      {"measurement": "inhibition of LPS-induced TNF-α release", "setting": "[1]; [14]", "value": "approx. 30%"},
      {"measurement": "inhibition of LPS-induced IL-6 release", "setting": "[1]; [15]", "value": "about 10%"},
      {"measurement": "inhibition of LPS-induced TNF-α release", "setting": "[1]; [15]", "value": "approx. 30%"},
      {"measurement": "inhibition of LPS-induced TNF-α release", "setting": "[1]; 250 μM, 48 h pre-treatment, then 24 h LPS", "value": "approx. 40%"}
    ]},
    {"molecule": "Cc1ccc(-c2cc(C(F)(F)F)nn2-c2ccc(S(N)(=O)=O)cc2)cc1", "note": "[Celebrex]", "values": [
      {"measurement": "PGE2 levels", "setting": "COVID-19 patients", "value": "significantly reduced"}
    ]},
    {"molecule": "C[C@@H]1C[C@H]2[C@@H]3CCC4=CC(=O)C=C[C@]4(C)[C@@]3(F)[C@@H](O)C[C@]2(C)[C@@]1(O)C(=O)CO", "note": "[Dexamethasone, dexamethasone]", "values": [
      {"measurement": "reduction of cytokines release", "setting": "[1]; 10 μM, control, 30 min pre-treatment study (not shown)", "value": "about 60%"}
    ]},
    {"molecule": "CN[C@]1(c2ccccc2Cl)CCCCC1=O", "note": "[S-ketamine, (S)-ketamine]", "values": [
      {"measurement": "surgery-associated increase in IL-6", "setting": "[2]", "value": "attenuates"},
      {"measurement": "surgery-associated increase in TNF", "setting": "[2]", "value": "attenuates"}
    ]},
    {"molecule": "(2R,6R;2S,6S)-HNK", "values": [
      {"measurement": "anesthetic effects", "setting": "rats", "value": "no anesthetic or hyperlocomotor effects"}
    ]}
  ]
}
